Laboratory results reported in US12582717B2, “Protein based excipient for active pharmaceutical ingredients” (ROUSSELOT B.V., priority 2016, dated 2026).
Converted amounts (≈) assume the structure as drawn. “And” between values parts separate entries of the source, which are not always exact repeats. Equal values may be shown once. Read-outs that look alike come from different tables or passages of the source. Blank lines part the entries; values can stand above or below the molecule they belong to.

Assays:
[1] = molecular target: T1, BSA (Bos taurus, UniProt P02769); experiment: Tryptophan quenching binding of Flubendazole to BSA; design: species or system bovine; settings: read-out: dissociation constant Kd
T1 construct: from tissue; host or cells: bovine origin (tissue or fluid not specified)
T1 sequence (P02769 25-607): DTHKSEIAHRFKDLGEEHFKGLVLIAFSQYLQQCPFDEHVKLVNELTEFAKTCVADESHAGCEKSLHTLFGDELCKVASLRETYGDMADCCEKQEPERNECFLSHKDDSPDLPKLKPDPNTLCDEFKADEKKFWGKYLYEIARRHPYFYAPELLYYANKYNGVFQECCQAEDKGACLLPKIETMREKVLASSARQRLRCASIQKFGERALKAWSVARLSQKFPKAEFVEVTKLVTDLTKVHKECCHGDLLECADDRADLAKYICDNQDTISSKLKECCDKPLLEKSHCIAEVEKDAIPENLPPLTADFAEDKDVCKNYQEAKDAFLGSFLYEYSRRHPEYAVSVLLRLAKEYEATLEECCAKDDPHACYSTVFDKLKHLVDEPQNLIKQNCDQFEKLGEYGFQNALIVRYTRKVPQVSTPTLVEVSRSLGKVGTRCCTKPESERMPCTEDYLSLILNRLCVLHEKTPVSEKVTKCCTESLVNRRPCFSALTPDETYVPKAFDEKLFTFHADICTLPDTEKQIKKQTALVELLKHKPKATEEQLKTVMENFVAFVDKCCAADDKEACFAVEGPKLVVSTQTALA
Source text: For the following experiment the binding strength of a protein based excipient to a model API was verified. For the purposes of this experiment, BSA was the protein source, Flubendazole was used as the model API, formic acid served as the solvent and spray drying was chosen as the drying method.

[2] = Equilibrium solubility of Flubendazole in FaSSGF (RP-HPLC); type: physicochemical; settings: FaSSGF (fasted state simulated gastric fluid), pH 1.6, fassgf or other biorelevant, thermodynamic from solid; FaSSGF (1.6 pH), excess Flubendazole rotated up to 72 hours; read-out: equilibrium solubility in FaSSGF medium
Experimental: The dissolution profile and supersaturation state (i.e., the available concentration) was tested using a dissolution media which simulates the juice present in the human stomach before (i.e. fasted state) eating food; namely FaSSGF (1.6 pH) available from Bio-relevant®. A suitable method for determining the concentration is Reversed phase High-performance liquid chromatography (RP-HPLC), which separates molecules based on hydrophobicity causing different retention times as they flow out the column. The further working principles of RP-HPLC are known in the art. The RP-HPLC set-up used an Eclipse Zorbax Agilent 5 μm (4.6×150 mm) column with a flow Rate of 1 ml/min. The injection volume was 20 μl with the mobile phase containing ACN/TFA 0.1% (55:45) and an elution time of Flubendazole about ±1.9 min. The wavelength for measurements was set at 280 nm.
Prior to the experiments, the solubility of Flubendazole in FaSSGF was determined to serve as the baseline reference value. The reference solution was prepared by bringing an excess of Flubendazole in 8 ml FaSSGF solution. This solution was rotated during 72 hours and a 1 ml sample was taken every 24 hours. These reference samples were filtered through a Polytetrafluoroethylene (PTFE) 0.45 μm filter to determine the concentration of Flubendazole through the tested RP-HPLC method. […]

[3] = Solubility statements in the description; type: physicochemical
[4] = Dissolution of solvent-cast protein films (Example 1); type: physicochemical; settings: film cast from 5% solution in formic acid; 37° C., 0.1N HCl pH 1.5 for 90 minutes, then pH 6.8 up to 330 minutes
Experimental: In the following experiment 5% solutions of various proteins were dissolved in formic acid and solvent-casted into protein films. The proteins were selected from gelatin, BSA (albumin), pea, soy, whey and zein (corn). The protein films were then dissolved at 37° C. in 0.1N HCl with a pH of 1.5 for 90 minutes, after which the pH was adjusted to 6.8 over a time period up to 330 minutes.
The dissolution of the protein films was evaluated using spectrophotometry (absorbance at 280 nm), and plotted as a function of time.

Molecule: COC(=O)Nc1nc2cc(C(=O)c3ccc(F)cc3)ccc2[nH]1 [Flubendazole]
Kd ([1]; pH 1.0): 234 µM and ~234 µM
Kd ([1]; pH 4.0): 133 µM and ~133 µM
Kd ([1]; pH 7.0): 116 µM and ~116 µM
solubility thermodynamic at 72 h [2]: 11.2 µg/mL (≈ 35.7 µM)

solubility in methanol [3]: does not dissolve
Molecule: CCCS(=O)(=O)Nc1ccc(F)c(C(=O)c2c[nH]c3ncc(-c4ccc(Cl)cc4)cc23)c1F [Vemurafenib]

Molecule: Zein
dissolution level of protein film [4]: about 10%

Molecule: gelatin
dissolution level of protein film [4]: (near) complete dissolution
